Laboratory results: patent US8278303B2, “Phosphine transition metal complex, process for producing same, and anticancer agent” (Nippon Chemical Industrial Co., Ltd., priority 2006, dated 2012)

Tested on: Human acute myelocytic leukemia cells HL-60
Assay: Inhibitory activity on tumor cells, viable cell count by modified Mosmann (MTT) method
Assay type: cell-based
Conditions: HL-60 cells, 50,000 cells/well, 24 hours culture with compound, then MTT 3 hours; average of at least triplicate; read-out: IC50 (fifty percent inhibitory concentration)
Protocol: The cells were washed with PBS.
Formazan crystals formed by the enzyme activity of mitochondria in the cells were dissolved in 0.04 mol/HCl/isopropyl alcohol.

CP(c1nc2ccccc2nc1P(C)C(C)(C)C)C(C)(C)C.CP(c1nc2ccccc2nc1P(C)C(C)(C)C)C(C)(C)C.[Au+].[Cl-] (stereo not shown) [Example 1, bis(2,3-bis(t-butylmethylphosphino)quinoxaline)gold (I) chloride]
IC50: 517 nM
